Columns and labels:
NBD1 = target: T1, NBD1 (Homo sapiens, UniProt P13569); assay: Aggregation analysis using differential static light scattering (DSLS), thermal stability of NBD1 (ΔTagg); format: binding; conditions: ΔTagg versus DMSO control, NBD1 0.2 mg/ml
T1 construct: Purified recombinant NBD1 was produced using previously described methods; made in house
In short: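 Differential static light scattering read from 25° C. to 70° C. every 0.5° C., ramp 1° C./min, on recombinant NBD1 (0.2 mg/ml; Tris/NaCl/MgCl2 buffer with 2 mM ATP, 2 mM DTT, pH 7.6, 1% glycerol) plus compound. Reported ΔTagg subtracts averaged DMSO Tagg from inflection-point Tagg; categories A ≤5, B >5-10, C >10-25° C.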

CFTR = target: T2, CFTR (Homo sapiens, UniProt P13569, DEL508-508); assay: TECC24 AUC fold over DMSO @10 μM, CFTR-mediated transepithelial chloride transport in CF-HBE cells; format: cell-based; conditions: test agent AUC divided by DMSO vehicle AUC, primary CF-HBE cells, ΔF508 homozygous donor, 48 hours incubation
T2 construct: Primary human bronchial epithelial cells from a ΔF508 homozygous CF donor; host or cells: primary human bronchial epithelial cells (CF-HBE), ΔF508 homozygous donor
In short: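 Value is ratio of test-agent to DMSO AUC of equivalent transepithelial Cl− current, integrated from forskolin (10 μM) stimulation to CFTR inhibitor-172 (20 μM) block, with benzamil 10 μM present. CF-HBE (ΔF508/ΔF508) cultures had 48 h compound exposure at 10 μM, 36.5° C before recording.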

T2 sequence (P13569 with tags, fused parts or gaps DEL508-508): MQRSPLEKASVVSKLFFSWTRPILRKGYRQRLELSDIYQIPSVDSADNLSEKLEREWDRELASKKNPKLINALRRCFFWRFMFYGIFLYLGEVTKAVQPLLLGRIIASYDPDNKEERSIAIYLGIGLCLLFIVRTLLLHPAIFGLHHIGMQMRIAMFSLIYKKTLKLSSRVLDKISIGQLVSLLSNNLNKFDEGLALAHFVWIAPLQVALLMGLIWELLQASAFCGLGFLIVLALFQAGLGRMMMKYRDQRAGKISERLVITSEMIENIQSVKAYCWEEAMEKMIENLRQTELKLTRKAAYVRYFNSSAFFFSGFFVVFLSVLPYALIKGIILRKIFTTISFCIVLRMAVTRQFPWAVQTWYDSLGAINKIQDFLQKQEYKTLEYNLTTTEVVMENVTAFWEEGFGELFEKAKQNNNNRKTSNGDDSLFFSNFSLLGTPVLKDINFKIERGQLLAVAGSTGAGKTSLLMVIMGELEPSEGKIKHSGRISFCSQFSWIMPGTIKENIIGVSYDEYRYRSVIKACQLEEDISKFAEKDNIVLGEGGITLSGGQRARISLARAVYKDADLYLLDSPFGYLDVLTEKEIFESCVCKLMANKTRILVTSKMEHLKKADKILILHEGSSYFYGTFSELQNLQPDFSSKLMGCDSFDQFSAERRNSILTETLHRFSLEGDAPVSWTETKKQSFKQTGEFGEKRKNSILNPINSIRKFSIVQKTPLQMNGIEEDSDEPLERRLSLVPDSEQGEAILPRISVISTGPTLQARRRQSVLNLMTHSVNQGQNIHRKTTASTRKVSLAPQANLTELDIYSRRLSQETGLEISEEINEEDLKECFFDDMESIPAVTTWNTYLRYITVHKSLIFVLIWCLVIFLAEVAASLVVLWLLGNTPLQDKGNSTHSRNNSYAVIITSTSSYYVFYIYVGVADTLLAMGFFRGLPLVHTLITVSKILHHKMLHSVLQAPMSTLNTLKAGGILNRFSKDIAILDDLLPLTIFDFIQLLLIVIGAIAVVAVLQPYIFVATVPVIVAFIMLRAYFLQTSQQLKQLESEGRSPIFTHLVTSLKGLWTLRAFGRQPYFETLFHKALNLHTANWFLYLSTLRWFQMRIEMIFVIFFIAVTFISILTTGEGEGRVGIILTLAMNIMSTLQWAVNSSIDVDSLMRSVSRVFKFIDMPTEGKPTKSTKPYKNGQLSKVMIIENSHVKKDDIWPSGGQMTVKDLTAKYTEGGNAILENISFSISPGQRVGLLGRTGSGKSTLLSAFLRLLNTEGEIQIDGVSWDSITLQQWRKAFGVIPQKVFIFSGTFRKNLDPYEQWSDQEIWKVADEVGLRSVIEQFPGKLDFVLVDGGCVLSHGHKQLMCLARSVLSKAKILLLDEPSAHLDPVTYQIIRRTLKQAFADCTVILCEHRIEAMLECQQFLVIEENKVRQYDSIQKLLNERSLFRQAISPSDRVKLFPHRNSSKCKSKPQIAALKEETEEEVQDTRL
T1 sequence (P13569 423-646 limits assumed): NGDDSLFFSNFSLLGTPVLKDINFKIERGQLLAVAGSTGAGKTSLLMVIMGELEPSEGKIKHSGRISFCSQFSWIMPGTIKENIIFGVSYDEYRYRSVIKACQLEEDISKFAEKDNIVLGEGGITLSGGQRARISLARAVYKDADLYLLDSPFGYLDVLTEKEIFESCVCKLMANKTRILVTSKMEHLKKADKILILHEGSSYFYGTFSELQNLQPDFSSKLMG

Row | Structure (SMILES) | DSLS 3D (100 μM ΔT) (NBD1) | TECC (AUC, 10 μM) (CFTR)
1 | O=C(O)CCc1cccc(C2CCS(=O)(=O)CCc3cn(nn3)Cc3c(c(F)cc4[nH]ccc34)Oc3ccc(F)c(c3)-c3ncc2[nH]3)c1F (centres unmarked) [Compound 40, 3-[3-(24,30-Difluoro-9,9-dioxo-26-oxa-9lambda6-thia-3,13,14,15,21,33-hexazahexacyclo[25.3.1.12,5.112,15.017,25.018,22]tritriaconta-1(31),2,4,12(32),13,17,19,22,24,27,29-undecaen-6-yl)-2-fluoro-phenyl]propanoic Acid] | C (a value greater than 10 °C and less than or equal to 25 °C is marked “C”) | B (a value between 12-20 is marked “B”)
2 | Cn1nc2nc1-c1cc(ccn1)[S+]([O-])c1c(F)cc3[nH]ccc3c1CCS(=O)(=O)CC(C)(C)CCC[C@]2(C)c1cccc(CCS(C)(=O)=O)c1 (single isomer, unassigned) [Compound 243A] | B (a value above 5 °C and less than or equal to 10 °C is marked “B”) | C (a value between 20 and 80 is marked “C”)
3 | C[C@@H](Cc1cccc([C@@]2(C)CCCC(C)(C)CS(=O)(=O)CCc3c(c(F)cc4[nH]ccc34)C(O)c3ccnc(c3)-c3nc2nn3C)c1)C(=O)O (single isomer, unassigned) [Compound 255B] | C (a value greater than 10 °C and less than or equal to 25 °C is marked “C”) | C (a value between 20 and 80 is marked “C”)
4 | CC1(C)CCCC(C)(c2cccc(CC3(C(=O)O)CC3)c2)c2c[nH]c(n2)-c2cc(ccc2F)Oc2c(F)cc3[nH]ccc3c2CCS(=O)(=O)C1 (single isomer, unassigned) [Compound 171B, 1-[[3-(22,28-difluoro-6,10,10-trimethyl-12,12-dioxo-24-oxa-12λ6-thia-3,19,30-triazapentacyclo[23.3.1.12,5.015,23.016,20]triaconta-1(29),2(30),4,15,17,20,22,25,27-nonaen-6-yl)phenyl]methyl]cyclopropanecarboxylic Acid] | C (a value greater than 10 °C and less than or equal to 25 °C is marked “C”) | A (a TECC value less than 12 is marked “A”)
5 | COC(Cc1cccc(C2(C)CCCC(C)(C)CS(=O)(=O)CCc3c(c(F)cc4[nH]ccc34)Oc3ccc(F)c(c3)-c3nc2nn3C)c1)C(=O)O (single isomer, unassigned) [Compound 135A, 3-[3-(22,28-Difluoro-3,6,10,10-tetramethyl-12,12-dioxo-24-oxa-12λ6-thia-3,4,19,30-tetrazapentacyclo-[23.3.1.12,5.015,23.016,20]triaconta-1(29),2(30),4,15,17,20,22,25,27-nonaen-6-yl)phenyl]-2-methoxy-propanoic Acid] | A (an ΔTagg value less than or equal to 5 °C is marked “A”) | A (a TECC value less than 12 is marked “A”)
6 | CC(Cc1cccc(C2(C)CCC(=O)C(C)(C)CS(=O)(=O)CCc3c(c(F)cc4[nH]ccc34)Oc3ccc(F)c(c3)-c3nc2nn3C)c1)C(=O)O (single isomer, unassigned) [Compound 11B, 3-[3-[22,28-difluoro-3,6,10,10-tetramethyl-9,12,12-trioxo-24-oxa-12lambda6-thia-3,4,19,30-tetrazapentacyclo[23.3.1.12,5.015,23.016,20]triaconta-1(29),2(30),4,15,17,20,22,25,27-nonaen-6-yl]phenyl]-2-methyl-propanoic Acid] | A (an ΔTagg value less than or equal to 5 °C is marked “A”) | A (a TECC value less than 12 is marked “A”)
7 | C[C@@H](Cc1cccc(C2(C)CCCC(C)(C)CS(=O)(=O)CCc3c(c(F)cc4[nH]ccc34)Oc3ccc(F)c(c3)-c3nc2nn3C)c1)C(=O)NS(C)(=O)=O (single isomer, unassigned) [Compound 146] | C (a value greater than 10 °C and less than or equal to 25 °C is marked “C”) | A (a TECC value less than 12 is marked “A”)
8 | C[C@@H](Cc1cccc([C@@]2(C)CCCC(C)(C)CS(=O)(=O)CCc3c(c(F)cc4[nH]ccc34)[S+]([O-])c3ccc(F)c(c3)-c3nc2co3)c1)C(=O)O (single isomer, unassigned) [Compound 248B] | C (a value greater than 10 °C and less than or equal to 25 °C is marked “C”) | A (a TECC value less than 12 is marked “A”)
9 | Cn1nc2nc1C(C)(c1cccc(CCC(=O)O)c1)CCCC(C)(C)CS(=O)(=O)CCc1c(c(F)cc3[nH]ccc13)Oc1ccc(F)c-2c1 (single isomer, unassigned) [Compound 55A, 3-[3-(22,28-difluoro-4,6,10,10-tetramethyl-12,12-dioxo-24-oxa-12 lambda6-thia-3,4,19,30-tetrazapentacyclo[23.3.1.12,5.015,23.016,20]triaconta-1(29),2,5(30),15,17,20,22,25,27-nonaen-6yl)phenyl]propanoic Acid] | C (a value greater than 10 °C and less than or equal to 25 °C is marked “C”) | A (a TECC value less than 12 is marked “A”)
10 | Cn1nc2nc1-c1cc(ccc1F)Oc1c(F)cc3[nH]ccc3c1CCS(=O)(=O)CC(C)(C)CCCC2(C)c1cccc(CC(O)CO)c1 (single isomer, unassigned) [Compound 97A, 3-[3-(22,28-difluoro-3,6,10,10-tetramethyl-12,12-dioxo-24-oxa-12λ6-thia-3,4,19,30-tetrazapentacyclo[23.3.1.12,5.015,23.016,20]triaconta-1(29),2(30),4,15,17,20,22,25,27-nonaen-6-yl)phenyl]propane-1,2-diol] | C (a value greater than 10 °C and less than or equal to 25 °C is marked “C”) | A (a TECC value less than 12 is marked “A”)
11 | C[C@@H](Cc1cccc(C2(C)CCCC(C)(C)CS(=O)(=O)CCc3c(c(F)cc4[nH]ccc34)Oc3ccc(F)c(c3)-c3nc2nn3C)c1)C(=O)NO (single isomer, unassigned) [Compound 185] | C (a value greater than 10 °C and less than or equal to 25 °C is marked “C”) | B (a value between 12-20 is marked “B”)
12 | C[C@@H](Cc1cccc([C@@]2(C)CCCC(C)(C)CS(=O)(=O)CCc3c(c(F)c(F)c4[nH]ccc34)Oc3ccc(F)c(c3)-c3nc2nn3C)c1)C(=O)O [Compound 245, (2S)-2-methyl-3-[3-[(6R)-21,22,28-trifluoro-3,6,10,10-tetramethyl-12,12-dioxo-24-oxa-12λ6-thia-3,4,19,30-tetrazapentacyclo[23.3.1.12,5.015,23.016,20]triaconta-1(29),2(30),4,15,17,20,22,25,27-nonaen-6-yl]phenyl]propanoic Acid] | C (a value greater than 10 °C and less than or equal to 25 °C is marked “C”) | C (a value between 20 and 80 is marked “C”)
13 | CC1(C)CCCC(c2cccc(CCC(=O)O)c2)n2ccc(n2)-c2cc(ccc2F)Oc2c(F)cc3[nH]cnc3c2CCS(=O)(=O)C1 (centres unmarked) [Compound 57, 3-[3-(22,28-Difluoro-10,10-dimethyl-12,12-dioxo-24-oxa-12λ6-thia-5,17,19,30-tetrazapentacyclo[23.3.1.12,5.015,23.016,20]triaconta-1(29),2(30),3,15,17,20,22,25,27-nonaen-6-yl)phenyl]propanoic Acid] | B (a value above 5 °C and less than or equal to 10 °C is marked “B”) | C (a value between 20 and 80 is marked “C”)
14 | CC(Cc1cccc(C2(C3SCCS3)CCCC(C)(C)CS(=O)(=O)CCc3c(c(F)cc4[nH]ccc34)Oc3ccc(F)c(c3)-c3nc2nn3C)c1)C(=O)O (centres unmarked) [Compound 115, 3-[3-[6-(1,3-Dithiolan-2-yl)-22,28-difluoro-3,10,10-trimethyl-12,12-dioxo-24-oxa-12λ6-thia-3,4,19,30-tetrazapentacyclo-[23.3.1.12,5.015,23.016,20]triaconta-1(29),2(30),4,15,17,20,22,25,27-nonaen-6-yl]phenyl]-2-methyl-propanoic Acid] | C (a value greater than 10 °C and less than or equal to 25 °C is marked “C”) | A (a TECC value less than 12 is marked “A”)
15 | Cn1nc2nc1-c1cc(ccc1F)Oc1c(F)cc3[nH]ccc3c1CCS(=O)(=O)CC(C)(C)CCCC2(C)c1cccc(CC(=O)O)c1 (centres unmarked) [Compound 3, 2-[3-(22,28-Difluoro-3,6,10,10-tetramethyl-12,12-dioxo-24-oxa-12λ^6-thia-3,4,19,30-tetrazapentacyclo[23.3.1.1^2,5.0^15,23.0^16,20]triaconta-1(29),2(30),4,15,17,20,22,25,27-nonaen-6-yl)phenyl]acetic Acid] | C (a value greater than 10 °C and less than or equal to 25 °C is marked “C”) | B (a value between 12-20 is marked “B”)
16 | CC(Cc1cccc(C2(C)CCC(=O)C(C)(C)CS(=O)(=O)CCc3c(c(F)cc4[nH]ccc34)Oc3ccc(F)c(c3)-c3nc2nn3C)c1)C(=O)O (single isomer, unassigned) [Compound 11A, 3-[3-[22,28-difluoro-3,6,10,10-tetramethyl-9,12,12-trioxo-24-oxa-12lambda6-thia-3,4,19,30-tetrazapentacyclo[23.3.1.12,5.015,23.016,20]triaconta-1(29),2(30),4,15,17,20,22,25,27-nonaen-6-yl]phenyl]-2-methyl-propanoic Acid] | C (a value greater than 10 °C and less than or equal to 25 °C is marked “C”) | C (a value between 20 and 80 is marked “C”)
